The values that follow come from US5444042A, “Method of treatment of neurodegeneration with calpain inhibitors” (Cortex Pharmaceuticals, priority 1994, dated 1995).

The target in experiment [1] is T1, Papain (Carica papaya, UniProt P00784).
T1 sequence (P00784 134-345): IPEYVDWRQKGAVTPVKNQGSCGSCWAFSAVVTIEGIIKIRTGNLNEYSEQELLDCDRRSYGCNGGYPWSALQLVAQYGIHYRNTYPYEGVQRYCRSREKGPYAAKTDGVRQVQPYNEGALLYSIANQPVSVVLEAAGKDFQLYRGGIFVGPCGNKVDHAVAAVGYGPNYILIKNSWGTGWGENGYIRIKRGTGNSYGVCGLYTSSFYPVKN
The experiment can be described thus: Papain inhibition, Ki by Dixon plot (Table PKC1). The format is biochemical. The note with it: 0.05M Tris-HCl pH 7.5, 2 mM EDTA, 5 mM cysteine, 1% DMSO, 25° C., substrate Nα-Benzoyl-Arg-AMC; read-out: Ki P (Papain). Put shortly:
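Papain activity was read by fluorimetric AMC release (ex 380/em 460 nm) from Nα-Benzoyl-Arg-AMC in 0.05M Tris-HCl pH 7.5, 2 mM EDTA, 5 mM fresh cysteine, 1% DMSO, 25° C; "e"-marked values used Nα-Benzoyl-Arg-NA in 50 mM Tris-HCl pH 7.5, 20 mM EDTA, 5 mM cysteine, 9% DMSO. Enzyme started reactions; Ki was taken from Dixon plots over varied substrate and inhibitor concentrations.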

Experiment [2] has as its system hippocampal slices. Put plainly: Hippocampal slice evoked potential recovery after anoxia (Example 7B). The experiment is classed as cell-based, rat. The protocol: As in Example 7A, hippocampal slices (400 μm) were prepared from Sprague Dawley rats (6-7 weeks) and maintained in an interface chamber at 35° C. using conventional techniques, i.e. the lower surface of the slice received a constant perfusion (0.5 ml/min) of an artificial cerebrospinal fluid (ACSF), while the upper surface was exposed to a moist atmosphere of O2 :CO2 (95%:5%) exchanged at a rate of 2 L/min. The ACSF medium contains (in mM): NaCl (124), KCl (3), KHPO4 (1.25), MgSO4 (2.5), CaCl2 (3.4), NaHCO3 (26) and D-Glucose (10). Field excitatory post-synaptic responses were recorded from stratum radiatum of CA1b in response to stimulation of Schaffer-commissural fibers in CA1a or CA1c. The depth of the recording electrode was optimized and evoked responses were collected at a rate of one evoked response every 30 seconds.
After establishing a stable baseline of evoked responses (approximately 10 minutes), ACSF containing Calpain Inhibitor was washed into the chamber and slices were incubated for a period of one hour. After incubation, evoked responses were again recorded and the change in the amplitude of the responses from baseline levels was noted. No effect of the inhibitors tested on baseline evoked responses was observed.
For anoxia experiments, incubation in the drug-containing medium was followed by replacement of the O2 :CO2 (95%:5%) atmosphere with N2 :CO2 (95%:5%). Slices were exposed to this anoxic environment until disappearance of the pre-synaptic fiber volley and for two minutes (severe anoxia) longer (total time in anoxic environment approximately 7-8 minutes in control case). Effects of Calpain Inhibitors on the functional recovery of the slices after the anoxic episode were then measured. Recovery of the evoked potential (EPSP) slope and amplitude by the drug treated slices can be compared to control slices to determine the relative efficacy of various Calpain Inhibitors.

In experiment [3] the target is Calpain II. Put plainly: Calpain II KI (Table 1B(ii)). The format is biochemical. An excerpt:
We tested the ability of an additional group of Peptide Keto-Compounds to inhibit several proteases in order to evaluate their specificity for Calpain.

Where [4] appears, read: Concentration 100, ten minutes anoxia.

Where a SMILES comes first, the peptide text is derived from it. The star is where a group is joined. Boc = CC(C)(C)OC(=O)*; CH2Cl = ClC*

For the molecule `CCC(NC(=O)[C@@H]1CCCN1C(=O)[C@H](C)NC(=O)[C@H](C)NC(=O)CCC(=O)OC)C(=O)C(=O)OC` (mixture of isomers) [MeO-Suc-Ala-Ala-Pro-Abu-COOMe, MeO-Suc-Ala-Ala-Pro-DL-Abu-CO2 Me], in experiment [1], the Ki – broadly, a dissociation constant, usually derived from enzyme kinetics or from competition with a known ligand – is 700 nM.

Consider `CCOC(=O)C(=O)C(CC)NC(=O)[C@H](C)NC(=O)[C@H](C)NC(=O)OCc1ccccc1` (mixture of isomers) [Z-Ala-Ala-DL-Abu-COOEt, Z-Ala-Ala-DL-Abu-CO2 Et], for which the inhibition constant (Ki) in experiment [1] worked out at 900 nM.

On to `CCOC(=O)C(=O)[C@H](CC)NC(=O)[C@H](CC(C)C)NC(=O)OCc1ccccc1` (racemic) [Z-Leu-Abu-COOEt, Z-Leu-DL-Abu-COOEt], for which the “% Recovery of synaptic transmission after anoxia” value (“% Recovery” below) in experiment [2] (setting [4]) is 55%. Moreover, the “recovery of EPSP amplitude from severe anoxia (FIG. 4)” value in experiment [2] (severe anoxia, 2 minutes post fiber volley disappearance) is “superior to that seen with CI1”. Besides, the Ki in experiment [3] stood at 400 nM.

As for `CCCC(NC(=O)[C@H](CC(C)C)NC(=O)OCc1ccccc1)C(=O)C(=O)OCC` (mixture of isomers) [Z-Leu-Nva-COOEt, Z-Leu-DL-Nva-COOEt], in experiment [3], the inhibition constant (Ki) came out at 1200 nM.

Take `CC(C)CC(NC(=O)CNC(=O)OC(C)(C)C)C(=O)NC(Cc1ccccc1)C(=O)CCl` (stereo not drawn) [Boc-Gly-Leu-Phe-CH2 Cl] (Boc-Gly-Leu-Phe-CH2Cl; configuration not given here): in experiment [2] (Concentration 50, ten minutes anoxia), the “% Recovery” value is listed as 30%.

In the case of `N=C(N)SCCCOc1oc(=O)c2cc(N)ccc2c1Cl` [NH2 -CiTPrOIC (ACITIC), 7-amino-4-chloro-3-(3-isothiureidopropoxy)isocoumarin], the “% Recovery” value in experiment [2] (Concentration 20, ten minutes anoxia) turned out to be 60%.

Molecule `CCCCC(NC(=O)C(CC(C)C)NC(=O)OCc1ccccc1)C(=O)C(=O)OCC` (stereo not drawn) [Z-Leu-Nle-COOEt, Z-Leu-NLeu-CO2 Et] registered a Ki in experiment [3] of 180 nM.

Consider `CCOC(=O)C(=O)C(Cc1ccccc1)NC(=O)C(CC(C)C)NC(=O)OCc1ccccc1` (stereo not drawn) [Z-Leu-Phe-COOEt], for which the “% Recovery” value in experiment [2] (setting [4]) was determined as 38%. In addition, the “period of anoxia required to produce fiber volley disappearance (FIG. 6)” value in experiment [2] (hippocampal slices) is on record as “substantially lengthens the period of exposure to anoxia required to produce FVD”. Moreover, in experiment [3], the inhibition constant (Ki) was 400 nM.
